Test systems include T-47D breast; NCI-H23 lung; MCF7 breast; BT-549 breast; LOX IMVI melanoma; K-562 leukemia; HCC-2998 colon; MDA-MB-231 breast; SK-OV-3 ovarian; EKVX NSCLC.
Common to all, as to assay: growth of human tumour cells (NCI), 48 h

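Test compounds were applied to cells in 96-well plates for 48 hours at 5 doses. GI50 marks 50% less growth. TGI: concentration producing complete growth inhibition.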

With `COC1=C(C)C(=O)c2c(c(CCCl)c3n2CCC3O)C1=O` (stereo not drawn), the GI50 in the assay on T-47D breast was 16.3 µM; in the assay on NCI-H23 lung it was 0.133 µM; in the assay with MCF7 breast, 0.125 µM; with BT-549 breast it was 0.247 µM; with LOX IMVI melanoma, 0.592 µM; with K-562 leukemia, 2.21 µM. In addition, the GI50 in the assay on HCC-2998 colon is 0.348 µM; in the assay with MDA-MB-231 breast it was 21.8 µM; in the assay with SK-OV-3 ovarian, 0.412 µM; with EKVX NSCLC, 2.3 µM. Further, the TGI is more than 82.9 µM with T-47D breast; 0.799 µM in the assay on NCI-H23 lung; 1.9 µM in the assay on MCF7 breast; 1.09 µM with BT-549 breast; 5.23 µM with LOX IMVI melanoma; more than 40.7 µM in the assay with K-562 leukemia. The TGI was determined as 1.57 µM in the assay on HCC-2998 colon, 83 µM in the assay on MDA-MB-231 breast, 3.37 µM in the assay on SK-OV-3 ovarian and 7.69 µM in the assay on EKVX NSCLC.
Turning to `CCC(c1ccc(OC)cc1)C(CC)c1ccc(O)c(CN2CCN(C)CC2)c1` (stereo not drawn), the GI50 in the assay with T-47D breast is 2.57 µM; with NCI-H23 lung it was 6.37 µM; with MCF7 breast, 2.42 µM; with BT-549 breast, 13.2 µM; in the assay with LOX IMVI melanoma, 2.48 µM; with K-562 leukemia, 2.71 µM. Further, the GI50 was 2.15 µM with HCC-2998 colon, 3.7 µM with MDA-MB-231 breast, 13.8 µM with SK-OV-3 ovarian and 5.37 µM with EKVX NSCLC. Also, the TGI with T-47D breast is 8.35 µM; in the assay with NCI-H23 lung it was 20.6 µM; in the assay with MCF7 breast it was 5.09 µM; in the assay on BT-549 breast it was 26.8 µM; in the assay on LOX IMVI melanoma it was 7.64 µM; in the assay with K-562 leukemia, 14.8 µM. For the same molecule, the TGI in the assay on HCC-2998 colon stood at 4.62 µM; in the assay with MDA-MB-231 breast, 15.1 µM; in the assay on SK-OV-3 ovarian it was 29.2 µM; with EKVX NSCLC, 19.2 µM.
Consider `CC(=O)OC1=CC2=CC[C@H]3[C@@H]4CCC(=O)[C@@]4(C)CC(=O)[C@]3(S)[C@@]2(C)CC1`, for which the TGI in the assay on T-47D breast was more than 100 µM; in the assay on NCI-H23 lung, more than 100 µM; in the assay with MCF7 breast it was more than 100 µM; with BT-549 breast, more than 100 µM; in the assay with LOX IMVI melanoma, 36 µM; in the assay with K-562 leukemia, 76.7 µM. Besides, the TGI was 65.1 µM with HCC-2998 colon, 66.8 µM with MDA-MB-231 breast, more than 100 µM in the assay with SK-OV-3 ovarian and more than 100 µM in the assay on EKVX NSCLC.
Regarding `Cn1nc(-c2ccc(Cl)cc2)nc2c(=O)n(C)c(=O)nc1-2`, the GI50 with T-47D breast was 1.12 µM; with NCI-H23 lung it was 1.18 µM; in the assay with MCF7 breast, 0.594 µM; in the assay on BT-549 breast, 0.968 µM; in the assay with LOX IMVI melanoma, 0.601 µM; in the assay with K-562 leukemia it was 1.17 µM. The GI50 with HCC-2998 colon is 1.18 µM; in the assay with MDA-MB-231 breast, 1.28 µM; in the assay with SK-OV-3 ovarian it was 4.8 µM; with EKVX NSCLC, 1.11 µM. The TGI came to 3.43 µM in the assay with T-47D breast; 3.16 µM in the assay on NCI-H23 lung; 1.57 µM with MCF7 breast; 1.94 µM in the assay with BT-549 breast; 1.61 µM in the assay with LOX IMVI melanoma; 3.22 µM in the assay on K-562 leukemia. Moreover, the TGI is 3.83 µM in the assay with HCC-2998 colon, 7.34 µM in the assay on MDA-MB-231 breast, 17.7 µM in the assay on SK-OV-3 ovarian and 4.21 µM in the assay on EKVX NSCLC.
For the molecule `O=C(O)c1cn(C2CC2)c2cc(N3CCN(C(=O)Nc4nc(-c5ccccc5)cs4)CC3)c(F)cc2c1=O`, the GI50 is 1.74 µM with T-47D breast; 0.654 µM in the assay on NCI-H23 lung; 1.72 µM in the assay on MCF7 breast; 0.473 µM in the assay with BT-549 breast; 0.281 µM in the assay on LOX IMVI melanoma; 2.05 µM in the assay on K-562 leukemia. The GI50 in the assay with HCC-2998 colon was 2.24 µM; in the assay on MDA-MB-231 breast it was 2.3 µM; in the assay with SK-OV-3 ovarian, 1.95 µM; in the assay on EKVX NSCLC it was 3.17 µM. The TGI in the assay with T-47D breast is more than 100 µM; with NCI-H23 lung, 14 µM; in the assay on MCF7 breast it was more than 100 µM; with BT-549 breast, 10.4 µM; in the assay on LOX IMVI melanoma it was 1.03 µM; in the assay on K-562 leukemia, more than 100 µM. Also, the TGI with HCC-2998 colon is more than 100 µM; with MDA-MB-231 breast, 9.94 µM; in the assay with SK-OV-3 ovarian it was 7.38 µM; with EKVX NSCLC, 85.2 µM.
With `Cc1cc2cc3ccc(N(C)C)cc3nc2cc1N`, the GI50 in the assay on T-47D breast is 0.434 µM; with NCI-H23 lung, 0.49 µM; in the assay with MCF7 breast, 0.35 µM; in the assay with BT-549 breast, 1.64 µM; with LOX IMVI melanoma, 0.325 µM; in the assay on K-562 leukemia, 0.418 µM. The GI50 was 0.33 µM in the assay on HCC-2998 colon, 1.12 µM with MDA-MB-231 breast, 0.552 µM in the assay on SK-OV-3 ovarian and 0.273 µM in the assay with EKVX NSCLC. In addition, the TGI is 3.5 µM in the assay with T-47D breast; 4.42 µM in the assay on NCI-H23 lung; 11.2 µM in the assay on MCF7 breast; 3.82 µM with BT-549 breast; 5.01 µM in the assay on LOX IMVI melanoma; more than 21 µM with K-562 leukemia. Besides, the TGI is 1.34 µM with HCC-2998 colon, 2.88 µM with MDA-MB-231 breast, 3.35 µM in the assay with SK-OV-3 ovarian and 3.11 µM in the assay on EKVX NSCLC.
As for `C=C1C(=O)O[C@H]2[C@H]1CC/C(COC(=O)CCSCCC(=O)OC/C1=C/CC[C@@]3(C)O[C@H]3[C@H]3OC(=O)C(=C)[C@@H]3CC1)=C\CC[C@@]1(C)O[C@@H]21`, the GI50 with T-47D breast was 1.3 µM; in the assay with NCI-H23 lung, 1.89 µM; in the assay with MCF7 breast it was 0.418 µM; in the assay with BT-549 breast, 1.29 µM; in the assay with LOX IMVI melanoma it was 0.44 µM; in the assay on K-562 leukemia, 0.371 µM. The GI50 was 1.89 µM in the assay on HCC-2998 colon, 1.09 µM with MDA-MB-231 breast, 4.1 µM in the assay with SK-OV-3 ovarian and 1.42 µM in the assay on EKVX NSCLC. Besides, the TGI in the assay on T-47D breast was found to be 3.21 µM; in the assay with NCI-H23 lung, 4.2 µM; in the assay on MCF7 breast, 1.86 µM; with BT-549 breast, 2.66 µM; with LOX IMVI melanoma it was 1.6 µM; with K-562 leukemia, 10.2 µM. For the same molecule, the TGI in the assay on HCC-2998 colon came out at 3.52 µM; in the assay with MDA-MB-231 breast it was 2.55 µM; in the assay with SK-OV-3 ovarian it was 13.8 µM; with EKVX NSCLC, 3.39 µM.
Consider `COc1ccccc1C1=C(Nc2ccccc2)C(=O)NC1=O`, for which the GI50 in the assay with T-47D breast, in the assay with MCF7 breast, in the assay on BT-549 breast, in the assay on LOX IMVI melanoma, in the assay with K-562 leukemia and in the assay with HCC-2998 colon was more than 25 µM throughout. Besides, the GI50 in the assay on MDA-MB-231 breast, in the assay on SK-OV-3 ovarian and with EKVX NSCLC was more than 25 µM each time. Moreover, the TGI in the assay on T-47D breast, in the assay on MCF7 breast, in the assay with BT-549 breast, with LOX IMVI melanoma, in the assay with K-562 leukemia and with HCC-2998 colon was more than 25 µM throughout. Besides, the TGI in the assay on MDA-MB-231 breast, in the assay with SK-OV-3 ovarian and with EKVX NSCLC was more than 25 µM throughout.

Source of the values: PubChem BioAssay (NCI).
